Where a name gives a salt, the structure may show the parent alone. Read-outs that look alike come from different tables or passages of the source.
Key:
[1] = test system: CCL17 secretion in peripheral human whole blood; assay: Human Whole Blood (HWB) CCL17 TR-FRET Assay (IL-13 stimulated CCL17 secretion); assay type: cell-based; conditions: Homo sapiens, 48 h
In short: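 Heparinized human whole blood was preincubated with compound (11-point, 3-fold series) for 2 h at 37°C, then stimulated with IL-13 (10 ng/mL final) for 48 h. Serum CCL17 was measured by TR-FRET sandwich immunoassay (665/615 nm ratio) after 16 h at room temperature, giving IC50.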

STAT6 = molecular target: T1, STAT6 (Homo sapiens, UniProt P42226); assay: STAT6 Reporter Luciferase Assay (IL-13 stimulated HaCaT keratinocyte NanoLuc reporter cells); assay type: cell-based; conditions: read-out: Reporter EC50
T1 construct: stably transfected HaCaT keratinocyte cell line, which expresses NanoLuc luciferase reporter gene under the transcriptional control of the STAT6 responsive promoter; endogenous in cells; host or cells: HaCaT keratinocyte reporter cell line (stably transfected with a NanoLuc reporter)
T1 sequence (P42226 1-847): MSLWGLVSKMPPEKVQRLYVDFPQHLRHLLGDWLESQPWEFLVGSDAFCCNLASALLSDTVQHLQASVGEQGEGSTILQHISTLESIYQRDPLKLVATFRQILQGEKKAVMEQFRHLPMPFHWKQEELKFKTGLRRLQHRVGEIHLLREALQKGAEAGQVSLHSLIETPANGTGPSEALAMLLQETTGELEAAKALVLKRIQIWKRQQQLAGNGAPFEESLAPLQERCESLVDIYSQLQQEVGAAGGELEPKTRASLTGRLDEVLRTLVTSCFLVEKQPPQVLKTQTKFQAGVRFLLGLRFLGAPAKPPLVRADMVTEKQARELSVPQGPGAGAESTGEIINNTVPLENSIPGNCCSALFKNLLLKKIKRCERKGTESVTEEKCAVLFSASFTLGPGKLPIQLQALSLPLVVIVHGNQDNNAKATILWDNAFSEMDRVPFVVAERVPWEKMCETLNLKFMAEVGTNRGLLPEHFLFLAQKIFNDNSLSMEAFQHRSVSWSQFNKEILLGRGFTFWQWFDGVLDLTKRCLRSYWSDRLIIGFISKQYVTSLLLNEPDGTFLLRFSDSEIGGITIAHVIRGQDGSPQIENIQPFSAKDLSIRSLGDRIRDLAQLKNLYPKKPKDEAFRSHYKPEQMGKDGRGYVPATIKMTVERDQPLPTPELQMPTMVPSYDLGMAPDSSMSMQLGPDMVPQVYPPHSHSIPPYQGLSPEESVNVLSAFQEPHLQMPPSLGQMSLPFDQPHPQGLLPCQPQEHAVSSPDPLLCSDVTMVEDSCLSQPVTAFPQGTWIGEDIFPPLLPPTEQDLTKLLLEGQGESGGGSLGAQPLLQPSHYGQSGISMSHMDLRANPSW
In short: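 Cells were plated overnight, washed, exposed to compound for two hours, stimulated with IL-13 (0.12 nM final) for four hours at 37 °C, and then lysed with Nano-Glo substrate for 15 min before luminescence reading.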

[2] = human whole blood, IL-13 stimulated
[3] = IL-13 stimulated HaCaT STAT6 NanoLuc reporter cells
[4] = inhibition of CCL17 secretion in human whole blood, 10 ng/mL IL13, 48 hours
[5] = STAT6 NanoLuc luciferase reporter, IL-13 stimulated HaCaT keratinocyte cells
[6] = human whole blood, 10 ng/mL IL13, 48 hours

**Q.** Which results are given for `CC(C)n1nc(C(=O)NCc2ccc(NC(=O)N(C)C)cc2)c2c1CC(C(F)(F)F)N(c1ccc(C(=O)N(C)C)cn1)C2` (racemic) [Example 255, rac-(R)-5-(5-(dimethylcarbamoyl)pyridin-2-yl)-N-(4-(3,3-dimethylureido)benzyl)-1-isopropyl-6-(trifluoromethyl)-4,5,6,7-tetrahydro-1H-pyrazolo[4,3-c]pyridine-3-carboxamide]?
**A.** IC50 [1, 2]: 0.048 µM; EC50 (STAT6; [3]): 0.003 µM

**Q.** How did the IC50 [1, 2] turn out when `CC(C)n1nc(C(=O)NCc2ccc(-c3ncc[nH]3)cc2)c2c1[C@@H](C)CN(c1ccc(C(=O)N(C)C)cn1)C2` [Example 343, (S)-N-(4-(1H-imidazol-2-yl)benzyl)-5-(5-(dimethylcarbamoyl)pyridin-2-yl)-1-isopropyl-7-methyl-4,5,6,7-tetrahydro-1H-pyrazolo[4,3-c]pyridine-3-carboxamide] was run?
**A.** 0.009 µM

**Q.** And the EC50 (STAT6; [3])?
**A.** 0.001 µM

**Q.** What does the source list for `CCn1nc(C(=O)NCc2ccc(NC(=O)N(C)C)cc2)c2c1[C@@H](C)CN(c1ncc(C(=O)N(C)C)cn1)C2` [Example 125, (S)-5-(5-(Dimethylcarbamoyl)pyrimidin-2-yl)-N-(4-(3,3-dimethylureido)benzyl)-1-ethyl-7-methyl-4,5,6,7-tetrahydro-1H-pyrazolo[4,3-c]pyridine-3-carboxamide]?
**A.** IC50 [1, 4]: 0.004 µM; EC50 (STAT6; [5]): 0.001 µM

**Q.** For `CC(C)n1nc(C(=O)NCc2ccc(NC(=O)N(C)C)cc2)c2c1CCN(c1ccc(N3CC(O)CC3=O)cn1)C2` (racemic) [Example 93, rac-(R)-N-(4-(3,3-dimethylureido)benzyl)-5-(5-(4-hydroxy-2-oxopyrrolidin-1-yl)pyridin-2-yl)-1-isopropyl-4,5,6,7-tetrahydro-1H-pyrazolo[4,3-c]pyridine-3-carboxamide], which IC50 [1, 4] is on record?
**A.** 2.27 µM

**Q.** And the EC50 (STAT6; [5])?
**A.** 0.525 µM

**Q.** For `CCCn1nc(C(=O)NCc2ccc(NC(=O)N(C)C)cc2)c2c1CCN(c1ccc(C(=O)N(C)C)cn1)C2` [Example 74, 5-(5-(dimethylcarbamoyl)pyridin-2-yl)-N-(4-(3,3-dimethylureido)benzyl)-1-propyl-4,5,6,7-tetrahydro-1H-pyrazolo[4,3-c]pyridine-3-carboxamide], which IC50 [1, 4] is on record?
**A.** 0.12 µM

**Q.** And the EC50 (STAT6; [5])?
**A.** 0.011 µM

**Q.** How did the IC50 [1, 2] turn out when `CC(C)n1nc(C(=O)NCc2ccc(NC(=O)N(C)C)cc2)c2c1CCN(c1ccc(C(=O)N3CCc4c(ncn4C4CC4)C3)cn1)C2` [Example 420, 5-(5-(1-cyclopropyl-4,5,6,7-tetrahydro-1H-imidazo[4,5-c]pyridine-5-carbonyl)pyridin-2-yl)-N-(4-(3,3-dimethylureido)benzyl)-1-isopropyl-4,5,6,7-tetrahydro-1H-pyrazolo[4,3-c]pyridine-3-carboxamide] was run?
**A.** 0.125 µM

**Q.** What about the EC50 (STAT6; [3]) of the same molecule?
**A.** 0.017 µM

**Q.** `CC(C)n1nc(C(=O)NCc2ccc(NC(=O)N3CC4(CCN(C)CC4)C3)c(F)c2)c2c1[C@@H](C)CN(c1ccc(-n3ccccc3=O)cn1)C2` [Example 632, (S)-N-(3-fluoro-4-(7-methyl-2,7-diazaspiro[3.5]nonane-2-carboxamido)benzyl)-1-isopropyl-7-methyl-5-(2-oxo-2H-[1,3′-bipyridin]-6′-yl)-4,5,6,7-tetrahydro-1H-pyrazolo[4,3-c]pyridine-3-carboxamide] was tested. Which IC50 [1, 6] did it give?
**A.** 0.039 µM

**Q.** What about the EC50 (STAT6; [3]) of the same molecule?
**A.** 0.005 µM

**Q.** `CCn1nc(C(=O)NCc2ccc(C(=O)NC)cc2)c2c1[C@@H](C)CN(c1ncc(C(=O)N(C)C)cn1)C2` [Example 306, (S)-5-(5-(dimethylcarbamoyl)pyrimidin-2-yl)-1-ethyl-7-methyl-N-(4-(methylcarbamoyl)benzyl)-4,5,6,7-tetrahydro-1H-pyrazolo[4,3-c]pyridine-3-carboxamide] was tested. Which IC50 [1, 2] did it give?
**A.** 0.033 µM

**Q.** And the EC50 (STAT6; [3])?
**A.** 0.007 µM

**Q.** `CC(C)n1nc(C(=O)NCc2ccc(NC(=O)N3CC4(CNC4)C3)c(F)c2)c2c1[C@@H](C)CN(c1ccc(C(=O)N(C)C)cc1)C2` [Example 595, (S)-5-(4-(dimethylcarbamoyl)phenyl)-N-(3-fluoro-4-(2,6-diazaspiro[3.3]heptane-2-carboxamido)benzyl)-1-isopropyl-7-methyl-4,5,6,7-tetrahydro-1H-pyrazolo[4,3-c]pyridine-3-carboxamide] was tested. Which IC50 [1, 6] did it give?
**A.** 0.083 µM

**Q.** And the EC50 (STAT6; [3])?
**A.** 0.064 µM

**Q.** For `COC1CN(C(=O)Nc2ccc(CNC(=O)c3nn(C(C)C)c4c3CN(c3ccc(C(=O)N(C)C)cn3)CC4)cc2)C1` [Example 188, 5-(5-(dimethylcarbamoyl)pyridin-2-yl)-1-isopropyl-N-(4-(3-methoxyazetidine-1-carboxamido)benzyl)-4,5,6,7-tetrahydro-1H-pyrazolo[4,3-c]pyridine-3-carboxamide], which IC50 [1, 2] is on record?
**A.** 0.069 µM

**Q.** What about the EC50 (STAT6; [3]) of the same molecule?
**A.** 0.011 µM

**Q.** Which results are given for `CC(C)n1nc(C(=O)NCc2ccc(NC(=O)N3CCC(OCCO)CC3)cc2)c2c1CCN(c1ccc(C(=O)N(C)C)cn1)C2` [Example 162, 5-(5-(dimethylcarbamoyl)pyridin-2-yl)-N-(4-(4-(2-hydroxyethoxy)piperidine-1-carboxamido)benzyl)-1-isopropyl-4,5,6,7-tetrahydro-1H-pyrazolo[4,3-c]pyridine-3-carboxamide]?
**A.** IC50 [1, 4]: 0.066 µM; EC50 (STAT6; [5]): 0.011 µM

**Q.** `CC(C)n1nc(C(=O)NCc2ccc(NC(=O)N(C)C)cn2)c2c1C[C@H](C)N(c1ccc(C(=O)N(C)C)cn1)C2` [Example 535, (S)-5-(5-(dimethylcarbamoyl)pyridin-2-yl)-N-((5-(3,3-dimethylureido)pyridin-2-yl)methyl)-1-isopropyl-6-methyl-4,5,6,7-tetrahydro-1H-pyrazolo[4,3-c]pyridine-3-carboxamide] was tested. Which IC50 [1, 6] did it give?
**A.** 0.013 µM

**Q.** What about the EC50 (STAT6; [3]) of the same molecule?
**A.** 0.005 µM

**Q.** `CN(C)C(=O)Nc1ccc(CNC(=O)c2nn(CC3CC(F)(F)C3)c3c2CN(c2ccc(C(=O)N(C)C)cn2)CC3)cc1` [Example 248, 1-((3,3-difluorocyclobutyl)methyl)-5-(5-(dimethylcarbamoyl)pyridin-2-yl)-N-(4-(3,3-dimethylureido)benzyl)-4,5,6,7-tetrahydro-1H-pyrazolo[4,3-c]pyridine-3-carboxamide] was tested. Which IC50 [1, 2] did it give?
**A.** 0.131 µM

**Q.** What about the EC50 (STAT6; [3]) of the same molecule?
**A.** 0.035 µM

**Q.** Which results are given for `CN(C)C(=O)Nc1ccc(CNC(=O)c2nn(C3CC3)c3c2CN(c2ccc(C(=O)N(C)C)cn2)CC3)cc1` [Example 10, 1-Cyclopropyl-5-(5-(dimethylcarbamoyl)pyridin-2-yl)-N-(4-(3,3-dimethylureido)benzyl)-4,5,6,7-tetrahydro-1H-pyrazolo[4,3-c]pyridine-3-carboxamide trifluoroacetate]?
**A.** IC50 [1, 4]: 0.094 µM; EC50 (STAT6; [5]): 0.011 µM

**Q.** For `CC(C)n1nc(C(=O)NCc2ccc(NC(=O)N3CCN(C)CC3)c(F)c2)c2c1[C@@H](C)CN(c1ccc(C(=O)N(C)C)cc1)C2` [Example 580, (S)-5-(4-(dimethylcarbamoyl)phenyl)-N-(3-fluoro-4-(4-methylpiperazine-1-carboxamido)benzyl)-1-isopropyl-7-methyl-4,5,6,7-tetrahydro-1H-pyrazolo[4,3-c]pyridine-3-carboxamide], which IC50 [1, 6] is on record?
**A.** 0.011 µM

**Q.** What about the EC50 (STAT6; [3]) of the same molecule?
**A.** 0.001 µM

**Q.** With `C[C@H]1CN(c2ncc(C(=O)N(C)C)cn2)Cc2c(C(=O)NCc3ccc(NC(=O)N(C)C)cc3)nn(C)c21` (single isomer, unassigned) [Example 273] as the molecule, how does the IC50 [1, 2] read?
**A.** 0.012 µM

**Q.** And the EC50 (STAT6; [3])?
**A.** 0.003 µM

**Q.** Which IC50 [1, 2] does the source give for `CN(C)C(=O)Nc1ccc(CNC(=O)c2nn(C)c3c2CN(c2ccc(C(=O)N(C)C)cn2)CC3C(F)(F)F)cc1` (single isomer, unassigned) [Example 391, rel-(R or S)-5-(5-(dimethylcarbamoyl)pyridin-2-yl)-N-(4-(3,3-dimethylureido)benzyl)-1-methyl-7-(trifluoromethyl)-4,5,6,7-tetrahydro-1H-pyrazolo[4,3-c]pyridine-3-carboxamide] here?
**A.** 2.17 µM

**Q.** What about the EC50 (STAT6; [3]) of the same molecule?
**A.** 0.74 µM

**Q.** What does the source list for `C[C@@H]1CN(c2ccc(C(=O)N(C)C)cn2)Cc2c(C(=O)NCc3ccc(NC(=O)N(C)C)cc3)nn(C3(C)CC3)c21` (single isomer, unassigned) [Example 551]?
**A.** IC50 [1, 6]: 0.104 µM; EC50 (STAT6; [3]): 0.012 µM

**Q.** Which IC50 [1, 2] does the source give for `CCC1Cc2c(c(C(=O)NCc3ccc(NC(=O)N(C)C)cc3)nn2C)CN1c1ccc(C(=O)N(C)C)cn1` (racemic) [Example 260, rac-(R)-5-(5-(dimethylcarbamoyl)pyridin-2-yl)-N-(4-(3,3-dimethylureido)benzyl)-6-ethyl-1-methyl-4,5,6,7-tetrahydro-1H-pyrazolo[4,3-c]pyridine-3-carboxamide] here?
**A.** 0.064 µM

**Q.** What about the EC50 (STAT6; [3]) of the same molecule?
**A.** 0.01 µM
